Results from patent US5849701A, “Peptide inhibitors of fibronectin and related collagen-binding proteins” (The United States of America as represented by the …, priority 1995, dated 1998).
Where no end group is shown, it is not given here.

B1: ovalbumin: control protein (protein, UniProt P01012 2-386, looked up)
Ovalbumin: GSIGAASMEFCFDVFKELKVHHANENIFYCPIAIMSALAMVYLGAKDSTRTQINKVVRFDKLPGFGDSIEAQCGTSVNVHSSLRDILNQITKPNDVYSFSLASRLYAEERYPILPEYLQCVKELYRGGLEPINFQTAADQARELINSWVESQTNGIIRNVLQPSSVDSQTAMVLVNAIVFKGLWEKAFKDEDTQAMPFRVTEQESKPVQMMYQIGLFRVASMASEKMKILELPFASGTMSMLVLLPDEVSGLEQLESIINFEKLTEWTSSNVMEERKIKVYLPRMKMEEKYNLTSVLMAMGITDVFSSSANLSGISSAESLKISQAVHAAHAEINEAGREVVGSAEAGVDAASVSEEFRADHPFLFCIKHIATNAVLFFGRCVSP

Experiments:
[1] = target: T1, fibronectin (Homo sapiens, UniProt P02751); assay: Inhibition of fibronectin binding to immobilized native type I collagen
T1 sequence (P02751 32-2477): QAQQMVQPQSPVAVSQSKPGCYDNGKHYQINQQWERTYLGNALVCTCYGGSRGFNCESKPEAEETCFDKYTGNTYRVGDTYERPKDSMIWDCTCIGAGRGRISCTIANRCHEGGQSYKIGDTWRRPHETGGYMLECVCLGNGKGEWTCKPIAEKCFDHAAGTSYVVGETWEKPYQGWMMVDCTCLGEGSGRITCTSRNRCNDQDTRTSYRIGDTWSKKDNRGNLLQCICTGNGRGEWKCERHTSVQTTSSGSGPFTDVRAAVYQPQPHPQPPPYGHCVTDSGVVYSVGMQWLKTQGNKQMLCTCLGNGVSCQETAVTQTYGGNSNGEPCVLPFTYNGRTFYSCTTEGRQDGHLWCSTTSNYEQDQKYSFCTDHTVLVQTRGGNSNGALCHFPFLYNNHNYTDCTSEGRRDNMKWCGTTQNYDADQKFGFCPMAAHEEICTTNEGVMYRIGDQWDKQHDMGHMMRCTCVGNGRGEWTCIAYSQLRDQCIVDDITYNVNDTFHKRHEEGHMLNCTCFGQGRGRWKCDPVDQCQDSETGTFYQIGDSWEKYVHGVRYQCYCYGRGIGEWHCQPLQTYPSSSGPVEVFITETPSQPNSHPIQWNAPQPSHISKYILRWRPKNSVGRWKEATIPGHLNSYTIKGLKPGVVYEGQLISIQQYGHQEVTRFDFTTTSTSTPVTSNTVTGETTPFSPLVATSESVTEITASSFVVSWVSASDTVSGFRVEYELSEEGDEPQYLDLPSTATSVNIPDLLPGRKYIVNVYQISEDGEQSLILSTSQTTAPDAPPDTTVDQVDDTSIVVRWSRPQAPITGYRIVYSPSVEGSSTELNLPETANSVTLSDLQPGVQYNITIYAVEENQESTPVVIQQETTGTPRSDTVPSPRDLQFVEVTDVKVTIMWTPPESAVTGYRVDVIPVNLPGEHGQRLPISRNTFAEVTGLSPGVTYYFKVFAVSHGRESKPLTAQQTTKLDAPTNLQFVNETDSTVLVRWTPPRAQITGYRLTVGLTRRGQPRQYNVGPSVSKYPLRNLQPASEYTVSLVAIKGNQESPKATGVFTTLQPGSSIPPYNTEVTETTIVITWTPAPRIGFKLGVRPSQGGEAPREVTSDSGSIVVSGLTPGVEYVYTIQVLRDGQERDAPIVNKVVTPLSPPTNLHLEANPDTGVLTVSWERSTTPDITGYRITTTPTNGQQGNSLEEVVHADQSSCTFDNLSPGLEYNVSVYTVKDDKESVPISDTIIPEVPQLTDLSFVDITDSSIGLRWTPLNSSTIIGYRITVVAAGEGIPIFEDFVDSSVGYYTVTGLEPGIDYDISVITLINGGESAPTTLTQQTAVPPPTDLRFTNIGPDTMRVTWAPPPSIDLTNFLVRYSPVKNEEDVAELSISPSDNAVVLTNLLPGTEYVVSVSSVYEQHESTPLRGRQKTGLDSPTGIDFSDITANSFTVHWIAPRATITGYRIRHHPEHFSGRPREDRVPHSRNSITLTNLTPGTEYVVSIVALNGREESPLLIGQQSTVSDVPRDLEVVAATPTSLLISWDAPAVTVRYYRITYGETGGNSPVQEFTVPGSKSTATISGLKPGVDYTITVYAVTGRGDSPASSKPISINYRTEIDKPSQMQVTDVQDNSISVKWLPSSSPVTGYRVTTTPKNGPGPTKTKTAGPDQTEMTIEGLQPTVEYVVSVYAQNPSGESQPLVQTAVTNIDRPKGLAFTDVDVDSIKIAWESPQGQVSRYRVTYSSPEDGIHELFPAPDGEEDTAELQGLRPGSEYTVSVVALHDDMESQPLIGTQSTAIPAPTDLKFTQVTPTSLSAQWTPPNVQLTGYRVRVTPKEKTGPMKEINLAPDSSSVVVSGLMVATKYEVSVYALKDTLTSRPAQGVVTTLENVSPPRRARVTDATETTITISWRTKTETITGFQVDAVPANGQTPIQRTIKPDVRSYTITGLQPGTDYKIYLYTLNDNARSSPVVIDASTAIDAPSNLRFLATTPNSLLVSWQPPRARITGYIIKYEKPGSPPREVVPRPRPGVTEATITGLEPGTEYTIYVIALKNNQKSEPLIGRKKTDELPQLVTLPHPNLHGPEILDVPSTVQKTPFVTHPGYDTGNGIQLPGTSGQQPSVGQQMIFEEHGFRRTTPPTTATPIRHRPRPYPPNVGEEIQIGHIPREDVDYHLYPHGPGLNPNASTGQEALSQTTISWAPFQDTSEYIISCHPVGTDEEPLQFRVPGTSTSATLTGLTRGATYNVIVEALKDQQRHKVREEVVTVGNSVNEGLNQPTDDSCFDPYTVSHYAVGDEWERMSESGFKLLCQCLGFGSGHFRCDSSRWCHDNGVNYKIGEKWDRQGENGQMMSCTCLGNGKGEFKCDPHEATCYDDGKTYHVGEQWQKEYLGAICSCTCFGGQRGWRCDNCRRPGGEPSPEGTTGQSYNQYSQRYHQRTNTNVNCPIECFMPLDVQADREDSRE
Method: (§1) Wells of a microtiter plate were incubated for 3 hours at 25° C. with […] gelatin in Dulbecco's PBS. The wells were emptied and incubated with Dulbecco's PBS containing 1% BSA for 30 minutes. The wells were emptied and incubated with 0.5 μg/ml ^125 I-fibronectin in the presence of peptide GlyGlyTrpSerHisTrp (SEQ ID NO: 1) (.circle-solid.); GlyGlyTrpSerLysTrp (SEQ ID NO: 9) (.tangle-solidup.); GlyGlyTyrSerHisTrp (SEQ ID NO: 10) (.box-solid.); or GlyGlyTrpSerHisTyr (SEQ ID NO: 11) (.tangle-soliddn.) for 2 hours at 25° C. The wells were washed 4 times with PBS, cut from the plate and the bound radioactivity was counted.
A ligand binding assay as described in Example 5 was performed except that microtiter plates were coated with immobilized native type I collagen in place of gelatin.

[2] = target: T1, fibronectin; assay: Direct binding of 125I-fibronectin to immobilized peptides
Method: Fibronectin was isolated from platelet-depleted plasma as described (Ariyama, et al. 1985, J. Biol. Chem. 260:4492-4500) and iodinated using Iodogen (Pierce Chemical Co., Rockford, Ill.) as described (Roberts, et al. 1987, J. Cell. Biol. 104:131-139).
Direct binding of the fibronectin to immobilized peptides was carried out by first absorbing the peptides on polyvinyl chloride microtiter wells for 3 hours at 25° C. at the indicated concentrations. Unbound peptides were removed by washing and wells were incubated for 30 minutes in tris-BSA (50 mM tris-HCl, pH7-8, 110 mm NaCl, 1% BSA) (Sigma fatty acid and globulin-free, 0.1% NaN3). The wells were washed and incubated with […] of 0.5 μg/ml ^125 I-fibronectin for 2 hours at 25° C. The wells were washed five times with Dulbecco's phosphate buffered saline and cut from the plate and bound radioactivity was counted.
The peptides listed in Table 1 were synthesized as described above and absorbed to microtiter wells. […] This peptide sequence is located in the second type I repeat of the human-ThbsI gene.

[3] = target: T1, fibronectin; assay: Inhibition of 125I-fibronectin binding to immobilized peptide GlyGlyTrpSerHisTrp; conditions: wells coated with 50 μg/ml peptide; 0.5 μg/ml 125I-fibronectin
Method: Microtiter plate wells were coated with 50 μg/ml of peptide GlyGlyTrpSerHisTrp (SEQ ID NO: 1) as in Example 1. Binding of ^125 I-fibronectin (0.5 μg/ml) to bound peptide was determined in the presence of increasing amounts of the peptides: FIG. 2A: the peptides are GlyGlyTrpSerHisTrp (SEQ ID NO: 1) (.circle-solid.); GlyGlyTrpSerLysTrp (SEQ ID NO: 9) (.tangle-solidup.); GlyGlyTyrSerHisTrp (SEQ ID NO: 10) (.box-solid.) and GlyGlyTrpSerHisTyr (SEQ ID NO: 11) (.tangle-soliddn.); FIG. 2B: GlyGlyTrpSerHisTrp (SEQ ID NO: 1) (-); GlyGlyTrpThrHisTrp (SEQ ID NO: 12) (.tangle-solidup.); GlyGlyTrpAlaHisTrp (SEQ ID NO: 13) (.box-solid.); GlyTrpSerHisTrp (SEQ ID NO: 14) (+); AlaAlaTrpSerHisTrp (SEQ ID NO: 21) (.tangle-soliddn.); and AspGlyTrpSerHisTrp (SEQ ID NO: 22) (.quadrature.).
Binding of ^125 1-fibronectin (0.5 μg/ml) to microtiter plate wells coated with 50 μg/ml of peptide GlyGlyTrpSerHisTrp (SEQ ID NO: 1) was determined in the presence of synthetic peptide GlyGlyTrpSerHisTrp (SEQ ID NO: 1), fibronectin or thrombospondin.
Microtiter plates were coated with 50 μg/ml of synthetic peptide GlyGlyTrpSerHisTrp (SEQ ID NO: 1) as described in Example 1. Binding of 125I-fibronectin (0.5 μg/ml) to the bound peptide was determined in the presence of proteolytic fragments of fibronectin, which were obtained from Telios Pharmaceuticals, Inc. San Diego, Calif. The proteolytic fragments included intact fibronectin; 30 kDa gelatin-binding domain; 33 kDa recombinant cell binding domain; 28 kDa recombinant cell binding domain and transferrin.

[4] = target: T1, fibronectin; assay: Inhibition of 125I-fibronectin binding to gelatin; conditions: 0.5 μg/ml 125I-fibronectin, 2 hours at 25° C.
Method: as §1

Molecule	inhibition of fibronectin binding to type I collagen (in words) [1]	inhibition of fibronectin binding to immobilized peptide GlyGlyTrpSerHisTrp (in words) [3]	further results
AAWSHW [AlaAlaTrpSerHisTrp]	inactive	–	–
DGWSHW [AspGlyTrpSerHisTrp]	inactive	–	–
DGWSPW [Peptide 317, DGWSPW]	–	–	binding of fibronectin to peptide (in words) [2]: inactive
GGWGPW [Peptide 318, GGWGPW]	–	–	binding of fibronectin to peptide (in words) [2]: inactive
GGWSHW [Peptide 300, GGWSHW]	–	–	IC50 [3]: 27 µM; IC50 [1]: 40 µM
GGWSHY [GlyGlyTrpSerHisTyr]	inactive	inactive	inhibition of fibronectin binding to gelatin (in words) [4]: inactive
GGWSKW [GlyGlyTrpSerLysTrp]	inactive	inactive	inhibition of fibronectin binding to gelatin (in words) [4]: inactive
GGWTHW [GlyGlyTrpThrHisTrp]	inactive	–	–
GGYSHW [GlyGlyTyrSerHisTrp]	inactive	inactive	inhibition of fibronectin binding to gelatin (in words) [4]: inactive
WSHWSP [Peptide 292, WSHWSP]	inactive	–	–
fetuin: control protein [reference compound]	–	–	IC50 for competition of 125I-fibronectin binding to peptide GlyGlyTrpSerHisTrp [3]: > 200 µg/mL
fibronectin	–	competed	–
thrombospondin: Human platelet thrombospondin, purified	–	competed	–
transferrin [reference compound]	–	–	IC50 for competition of 125I-fibronectin binding to peptide GlyGlyTrpSerHisTrp [3]: > 200 µg/mL
B1	–	–	IC50 for competition of 125I-fibronectin binding to peptide GlyGlyTrpSerHisTrp [3]: > 200 µg/mL
